{"source": "the supplement of paper PMC10307832", "experiment_in_all_cases": "relative viability (nuclei count vs DMSO), 5 days (fraction); higher = more cells survive", "key": {"ABC-1": {"test_system": "ABC-1", "procedure,_shortened": "(§1)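 One day after seeding in 1536-well plates, lung cancer cell lines were dosed by pin tool. Dosing was either single-drug or a fixed anchor-drug dose plus five library-drug doses (not always all listed) in √10 steps. After 5 days, nuclei were stained in one fix-and-stain step and counted on 4× images, and relative viability is the nuclei count of treated wells over that of vehicle wells, given as the median of duplicate plates.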"}, "NCI-H23": {"test_system": "NCI-H23", "procedure,_shortened": "as §1"}, "NCI-H1975": {"test_system": "NCI-H1975", "procedure,_shortened": "as §1"}, "IA-LM": {"test_system": "IA-LM", "procedure,_shortened": "as §1"}, "EBC-1": {"test_system": "EBC-1", "procedure,_shortened": "as §1"}, "NCI-H647": {"test_system": "NCI-H647", "procedure,_shortened": "as §1"}, "HCC-78": {"test_system": "HCC-78", "procedure,_shortened": "as §1"}, "RERF-LC-KJ": {"test_system": "RERF-LC-KJ", "procedure,_shortened": "as §1"}, "NCI-H1793": {"test_system": "NCI-H1793", "procedure,_shortened": "as §1"}, "LOU-NH91": {"test_system": "LOU-NH91", "procedure,_shortened": "as §1"}, "NCI-H1792": {"test_system": "NCI-H1792", "procedure,_shortened": "as §1"}, "EPLC-272H": {"test_system": "EPLC-272H", "procedure,_shortened": "as §1"}, "NCI-H1395": {"test_system": "NCI-H1395", "procedure,_shortened": "as §1"}, "NCI-H1651": {"test_system": "NCI-H1651", "procedure,_shortened": "as §1"}, "201T": {"test_system": "201T", "procedure,_shortened": "as §1"}, "NCI-H1437": {"test_system": "NCI-H1437", "procedure,_shortened": "as §1"}, "NCI-H1915": {"test_system": "NCI-H1915", "procedure,_shortened": "as §1"}, "UMC-11": {"test_system": "UMC-11", "procedure,_shortened": "as §1"}, "EMC-BAC-2": {"test_system": "EMC-BAC-2", "procedure,_shortened": "as §1"}, "SK-LU-1": {"test_system": "SK-LU-1", "procedure,_shortened": "as §1"}, "NCI-H2405": {"test_system": "NCI-H2405", "procedure,_shortened": "as §1"}, "NCI-H2023": {"test_system": "NCI-H2023", "procedure,_shortened": "as §1"}, "NCI-H661": {"test_system": "NCI-H661", "procedure,_shortened": "as §1"}}}
{"smiles": "CCCCCCCCCCCC1=C(O)C(=O)C=C(O)C1=O", "note": "[Embelin] + CS(=O)(=O)CCNCc1ccc(-c2ccc3ncnc(Nc4ccc(OCc5cccc(F)c5)c(Cl)c4)c3c2)o1 [Lapatinib] (partner 2 µM)", "values": [{"measurement": "relative viability", "setting": "ABC-1; first compound 0.08 µM", "value": 1.28}, {"measurement": "relative viability", "setting": "ABC-1; first compound 0.8 µM", "value": 1.7}, {"measurement": "relative viability", "setting": "ABC-1; first compound 2.53 µM", "value": 1.25}, {"measurement": "relative viability", "setting": "ABC-1; first compound 8 µM", "value": 1.1}, {"measurement": "relative viability", "setting": "NCI-H23; first compound 0.08 µM", "value": 1.17}, {"measurement": "relative viability", "setting": "NCI-H23; first compound 0.8 µM", "value": 1.2}, {"measurement": "relative viability", "setting": "NCI-H23; first compound 2.53 µM", "value": 1.36}, {"measurement": "relative viability", "setting": "NCI-H23; first compound 8 µM", "value": 1.07}, {"measurement": "relative viability", "setting": "NCI-H1975; first compound 0.08 µM", "value": 0.807}, {"measurement": "relative viability", "setting": "NCI-H1975; first compound 0.8 µM", "value": 0.951}, {"measurement": "relative viability", "setting": "NCI-H1975; first compound 2.53 µM", "value": 1.09}, {"measurement": "relative viability", "setting": "NCI-H1975; first compound 8 µM", "value": 0.872}, {"measurement": "relative viability", "setting": "IA-LM; first compound 0.08 µM", "value": 0.769}, {"measurement": "relative viability", "setting": "IA-LM; first compound 0.8 µM", "value": 0.894}, {"measurement": "relative viability", "setting": "IA-LM; first compound 2.53 µM", "value": 0.789}, {"measurement": "relative viability", "setting": "IA-LM; first compound 8 µM", "value": 0.645}, {"measurement": "relative viability", "setting": "EBC-1; first compound 0.08 µM", "value": 0.202}, {"measurement": "relative viability", "setting": "EBC-1; first compound 0.8 µM", "value": 0.247}, {"measurement": "relative viability", "setting": "EBC-1; first compound 2.53 µM", "value": 0.218}, {"measurement": "relative viability", "setting": "EBC-1; first compound 8 µM", "value": 0.217}, {"measurement": "relative viability", "setting": "NCI-H647; first compound 0.08 µM", "value": 1.08}, {"measurement": "relative viability", "setting": "NCI-H647; first compound 0.8 µM", "value": 1.38}, {"measurement": "relative viability", "setting": "NCI-H647; first compound 2.53 µM", "value": 1.89}, {"measurement": "relative viability", "setting": "NCI-H647; first compound 8 µM", "value": 1.17}, {"measurement": "relative viability", "setting": "HCC-78; first compound 0.08 µM", "value": 0.767}, {"measurement": "relative viability", "setting": "HCC-78; first compound 0.8 µM", "value": 0.703}, {"measurement": "relative viability", "setting": "HCC-78; first compound 2.53 µM", "value": 0.796}, {"measurement": "relative viability", "setting": "HCC-78; first compound 8 µM", "value": 0.616}, {"measurement": "relative viability", "setting": "RERF-LC-KJ; first compound 0.08 µM", "value": 0.81}, {"measurement": "relative viability", "setting": "RERF-LC-KJ; first compound 0.8 µM", "value": 0.935}, {"measurement": "relative viability", "setting": "RERF-LC-KJ; first compound 2.53 µM", "value": 0.991}, {"measurement": "relative viability", "setting": "RERF-LC-KJ; first compound 8 µM", "value": 0.84}, {"measurement": "relative viability", "setting": "NCI-H1793; first compound 0.08 µM", "value": 0.68}, {"measurement": "relative viability", "setting": "NCI-H1793; first compound 0.8 µM", "value": 0.833}, {"measurement": "relative viability", "setting": "NCI-H1793; first compound 2.53 µM", "value": 0.801}, {"measurement": "relative viability", "setting": "NCI-H1793; first compound 8 µM", "value": 0.686}, {"measurement": "relative viability", "setting": "LOU-NH91; first compound 0.08 µM", "value": 0.823}, {"measurement": "relative viability", "setting": "LOU-NH91; first compound 0.8 µM", "value": 0.99}, {"measurement": "relative viability", "setting": "LOU-NH91; first compound 2.53 µM", "value": 0.866}, {"measurement": "relative viability", "setting": "LOU-NH91; first compound 8 µM", "value": 0.63}, {"measurement": "relative viability", "setting": "NCI-H1792; first compound 0.08 µM", "value": 0.917}, {"measurement": "relative viability", "setting": "NCI-H1792; first compound 0.8 µM", "value": 0.877}, {"measurement": "relative viability", "setting": "NCI-H1792; first compound 2.53 µM", "value": 1.09}, {"measurement": "relative viability", "setting": "NCI-H1792; first compound 8 µM", "value": 1.06}, {"measurement": "relative viability", "setting": "EPLC-272H; first compound 0.08 µM", "value": 0.899}, {"measurement": "relative viability", "setting": "EPLC-272H; first compound 0.8 µM", "value": 1.38}, {"measurement": "relative viability", "setting": "EPLC-272H; first compound 2.53 µM", "value": 1.01}, {"measurement": "relative viability", "setting": "EPLC-272H; first compound 8 µM", "value": 0.816}, {"measurement": "relative viability", "setting": "NCI-H1395; first compound 0.08 µM", "value": 1.11}, {"measurement": "relative viability", "setting": "NCI-H1395; first compound 0.8 µM", "value": 1.27}, {"measurement": "relative viability", "setting": "NCI-H1395; first compound 2.53 µM", "value": 0.99}, {"measurement": "relative viability", "setting": "NCI-H1395; first compound 8 µM", "value": 0.754}, {"measurement": "relative viability", "setting": "NCI-H1651; first compound 0.08 µM", "value": 0.789}, {"measurement": "relative viability", "setting": "NCI-H1651; first compound 0.8 µM", "value": 0.974}, {"measurement": "relative viability", "setting": "NCI-H1651; first compound 2.53 µM", "value": 0.99}, {"measurement": "relative viability", "setting": "NCI-H1651; first compound 8 µM", "value": 0.824}, {"measurement": "relative viability", "setting": "201T; first compound 0.08 µM", "value": 1.03}, {"measurement": "relative viability", "setting": "201T; first compound 0.8 µM", "value": 1.04}, {"measurement": "relative viability", "setting": "201T; first compound 2.53 µM", "value": 1}, {"measurement": "relative viability", "setting": "201T; first compound 8 µM", "value": 0.99}, {"measurement": "relative viability", "setting": "NCI-H1437; first compound 0.08 µM", "value": 0.784}, {"measurement": "relative viability", "setting": "NCI-H1437; first compound 0.8 µM", "value": 0.938}, {"measurement": "relative viability", "setting": "NCI-H1437; first compound 2.53 µM", "value": 1.04}, {"measurement": "relative viability", "setting": "NCI-H1437; first compound 8 µM", "value": 0.466}, {"measurement": "relative viability", "setting": "NCI-H1915; first compound 0.08 µM", "value": 0.96}, {"measurement": "relative viability", "setting": "NCI-H1915; first compound 0.8 µM", "value": 0.984}, {"measurement": "relative viability", "setting": "NCI-H1915; first compound 2.53 µM", "value": 1.08}, {"measurement": "relative viability", "setting": "NCI-H1915; first compound 8 µM", "value": 0.956}, {"measurement": "relative viability", "setting": "UMC-11; first compound 0.08 µM", "value": 1.12}, {"measurement": "relative viability", "setting": "UMC-11; first compound 0.8 µM", "value": 1.17}, {"measurement": "relative viability", "setting": "UMC-11; first compound 2.53 µM", "value": 1.08}, {"measurement": "relative viability", "setting": "UMC-11; first compound 8 µM", "value": 0.877}, {"measurement": "relative viability", "setting": "EMC-BAC-2; first compound 0.08 µM", "value": 0.932}, {"measurement": "relative viability", "setting": "EMC-BAC-2; first compound 0.8 µM", "value": 0.959}, {"measurement": "relative viability", "setting": "EMC-BAC-2; first compound 2.53 µM", "value": 0.926}, {"measurement": "relative viability", "setting": "EMC-BAC-2; first compound 8 µM", "value": 0.817}, {"measurement": "relative viability", "setting": "SK-LU-1; first compound 0.08 µM", "value": 1}, {"measurement": "relative viability", "setting": "SK-LU-1; first compound 0.8 µM", "value": 1.15}, {"measurement": "relative viability", "setting": "SK-LU-1; first compound 2.53 µM", "value": 0.9}, {"measurement": "relative viability", "setting": "SK-LU-1; first compound 8 µM", "value": 0.863}, {"measurement": "relative viability", "setting": "NCI-H2405; first compound 0.08 µM", "value": 1.16}, {"measurement": "relative viability", "setting": "NCI-H2405; first compound 0.8 µM", "value": 1.48}, {"measurement": "relative viability", "setting": "NCI-H2405; first compound 2.53 µM", "value": 1.06}, {"measurement": "relative viability", "setting": "NCI-H2405; first compound 8 µM", "value": 1.02}, {"measurement": "relative viability", "setting": "NCI-H2023; first compound 0.08 µM", "value": 0.837}, {"measurement": "relative viability", "setting": "NCI-H2023; first compound 0.8 µM", "value": 0.979}, {"measurement": "relative viability", "setting": "NCI-H2023; first compound 2.53 µM", "value": 0.838}, {"measurement": "relative viability", "setting": "NCI-H2023; first compound 8 µM", "value": 0.477}, {"measurement": "relative viability", "setting": "NCI-H661; first compound 0.08 µM", "value": 0.467}, {"measurement": "relative viability", "setting": "NCI-H661; first compound 0.8 µM", "value": 0.596}, {"measurement": "relative viability", "setting": "NCI-H661; first compound 2.53 µM", "value": 0.545}, {"measurement": "relative viability", "setting": "NCI-H661; first compound 8 µM", "value": 0.48}]}
